Measured values reported in patent publication US8785452B2, “Anti-infective compounds” (priority 2008, dated 2014).
Like-named read-outs stand apart in the source and are kept apart here.

Columns and labels:
[1] = test system: M. tuberculosis H37Rv-GFP; test: microbe, parasite or virus in culture; type: cell-based, Mycobacterium tuberculosis; settings: for inhibition at 20 µM: Mycobacterium tuberculosis, H37RV, Macrophage
M. tuberculosis H37Rv = test: Conventional CFU determination in infected macrophages; type: cell-based, Mycobacterium tuberculosis; settings: human and mouse cells; seven days after infection; 232 at 20 μM
Raw264.7 cells [2] = settings: mouse, 5 days; for Primary QIM CellNb: 20 μM
Raw264.7 cells [3] = test: Cell number (CellNb) from image analysis of the phenotypic cell-based assay; settings: primary screen, 20 μM
[4] = confirmation, 20 uM, read-out: QIM Confirm % Inhibition 20 uM
[5] = primary screen, 20 μM, read-out: Primary QIM % Inhibition

SMILES | melting point | bacterial load and host cell abundance versus DMSO control [1] | decrease in the number of CFUs (M. tuberculosis H37Rv) | inhibition at 20 µM [1, 4] [%] | inhibition at 20 µM [1, 5] [%] | Primary QIM CellNb (Raw264.7 cells [2]) | Primary QIM CellNb (Raw264.7 cells [3]) | QIM Confirm CellNb 0.2 uM (Raw264.7 cells [2]; 0.2 uM)
COc1cccn2c(=O)c(CO)c(Nc3ccc(F)c(F)c3)nc12 | 231 °C (dec.) |  |  |  |  |  |  | 
CS(=O)(=O)O[C@H]1CCN(C(=O)c2cc([N+](=O)[O-])cc([N+](=O)[O-])c2)C1 | 138 to 140 °C |  |  |  |  |  |  | 
CNC(=O)c1c(Nc2ccc(F)c(Cl)c2)nc2c(OC)cccn2c1=O | 218 °C (dec.) |  |  |  |  |  |  | 
Cc1cccn2c(=O)c(CO)c(Nc3cccc(Cl)c3)nc12 [compound 232, 2-(3-Chlorophenylamino)-3-(hydroxymethyl)-9-methyl-4H-pyrido[1,2-a]pyrimidin-4-one] |  | harbored fewer bacteria compared to DMSO control and were more abundant | ten-fold decrease |  |  |  |  | 
Cc1nn(C)cc1/C=N/NC(=O)c1ccncc1 [IPK 000 079 13] |  |  |  | 102 | 69.6 | 97.8 | 294.0 | 
Cc1ccc(NC(=O)c2ccc([N+](=O)[O-])cc2Cl)cc1Cl [IPK 000 047 16] |  |  |  | 85.1 | 69.4 | 77.9 | 280.5 | 
CCOc1ccc(/C=N/NC(=O)c2ccncc2)cc1 [IPK 000 041 49] |  |  |  | 94.5 | 83.8 | 102.3 | 336.5 | 
O=[N+]([O-])c1cc(/C=N/c2ccc(S(=O)(=O)NC3NC=CS3)cc2)c2c(c1)COCO2 (stereo not shown) [IPK 000 057 92] |  |  |  | 27.2 | -30.7 | 23.0 | 165.3 | 
O=C(N/N=C/c1ccc([N+](=O)[O-])s1)C1CCN(Cc2ccc(Br)cc2)CC1 [IPK 000 091 49] |  |  |  | 95.1 | 90.5 | 9.3 | 110.5 | 
COc1ccc(/C(C)=N/NC(N)=S)c(OC)c1 [IPK 000 080 24] |  |  |  | 23 | 0.2 | 67.6 | 188.8 | 
Cc1cccc(NC(=O)c2c(NC(=O)c3ccccc3Cl)sc3c2CCC3)c1 [IPK 000 073 70] |  |  |  | 103 | 88.6 | 56.7 | 234.0 | 
O=C(CS)Nc1ccccc1Cl [IPK 000 108 27] |  |  |  | 44.1 | 54.7 | 19.0 | 171.0 | 
Oc1ccccc1/N=C/c1cc(Br)cc(Br)c1O [IPK 000 044 41] |  |  |  | 29.9 | -120 | 34.0 | 126.8 | 
CC1=C(Nc2ccc(S(=O)(=O)Nc3nc(C)cc(C)n3)cc2)Sc2ccccc2N1 [IPK 000 112 67] |  |  |  | 32.6 | -36.5 | 27.6 | 250.8 | 
Cc1ccc(NC(=O)c2c(NC(=O)C(F)(F)F)sc3c2CCC3)c(C)c1 [IPK 000 077 22] |  |  |  | 46.6 | -33 | 33.3 | 84.5 | 
COc1cccc(/C=N/NC(=O)c2ccncc2)c1OC [IPK 000 043 02] |  |  |  | 99.8 | 81.1 | 98.7 | 229.5 | 

SMILES | melting point | bacterial load and host cell abundance versus DMSO control [1] | decrease in the number of CFUs (M. tuberculosis H37Rv) | inhibition at 20 µM [1, 4] [%] | inhibition at 20 µM [1, 5] [%] | Primary QIM CellNb (Raw264.7 cells [2]) | Primary QIM CellNb (Raw264.7 cells [3]) | QIM Confirm CellNb 0.2 uM (Raw264.7 cells [2]; 0.2 uM)
CCc1ccc(/C=C(/C#N)C(=O)OC(C)C)s1 [IPK 000 107 90] |  |  |  | 89.6 | 79.3 | 52.8 | 494.3 | 
CCOc1cc(/C=N/NC(=O)c2ccncc2)ccc1O [IPK 000 042 99] |  |  |  | 106 | 103 | 104.1 | 364.0 | 
CCCCOc1ccc(/C=N/NC(=O)c2ccncc2)cc1 [IPK 000 043 06] |  |  |  | 98 | 81.4 | 98.1 | 200.3 | 
O=C(N/N=C/c1ccc(Cl)cc1Cl)c1ccncc1 [IPK 000 043 13] |  |  |  | 104 | 49.2 | 101.6 | 177.8 | 
COc1cc(/C=N/NC(=O)c2ccncc2)ccc1O [IPK 000 042 97] |  |  |  | 103 | 99.7 | 99.2 | 307.8 | 
CC(Oc1cccc2ccccc12)C(=O)NNC(=O)c1cc2ccccc2oc1=O (stereo not shown) [IPK 000 095 07] |  |  |  | 75.8 | 70.9 | 8.0 | 388.3 | 
O=C(N/N=C/c1ccc(O)cc1O)c1ccncc1 [IPK 000 043 28] |  |  |  | 95.9 | 94.9 | 87.1 | 326.5 | 
O=C(COc1ccccc1-c1ccccc1)N/N=C\c1ccc([N+](=O)[O-])s1 [IPK 000 103 28] |  |  |  | 71.3 | 71.1 | 49.5 | 134.3 | 
COc1cccc(/C=N/NC(=O)c2ccncc2)c1O [IPK 000 043 08] |  |  |  | 95.1 | 87.3 | 102.7 | 255.5 | 
O=C(Nc1sc2c(c1C(=O)Nc1ccccc1)CCC2)c1ccccc1Br [IPK 000 073 29] |  |  |  | 86.6 | 78.6 | 55.1 | 230.5 | 
O=C(N/N=C/c1ccc(F)cc1)c1ccncc1 [IPK 000 041 52] |  |  |  | 93.7 | 75.6 | 103.2 | 262.5 | 
Cc1ccccc1/C=N/NC(=O)c1ccncc1 [IPK 000 043 29] |  |  |  | 100 | 111 | 105.2 | 415.5 | 
Cc1ccccc1NC(=O)c1c(NC(=O)c2ccccc2Cl)sc2c1CCC2 [IPK 000 073 71] |  |  |  | 65.2 | 87.5 | 29.8 | 218.3 | 45.3
Cc1sc(/N=C/c2ccc([N+](=O)[O-])s2)c(C(N)=O)c1C [IPK 000 110 17] |  |  |  | 71.6 | 55.6 | 12.9 | 155.5 | 
CCOc1nnc(NS(=O)(=O)c2ccc(/N=C/c3ccccc3O)cc2)s1 [IPK 000 080 01] |  |  |  | 56.6 | 14.3 | 27.4 | 409.8 | 
O=C(N/N=C/c1cc2c(cc1[N+](=O)[O-])OCO2)c1ccncc1 [IPK 000 058 30] |  |  |  | 70.8 | 95.5 | 98.3 | 315.8 | 
